In paper PMC12697822, “The CtrCBL1/CtrCIPK6 Complex of Citrus Phosphorylates CtrBBX32 to Regulate CtrSTP1‐Mediated Sugar Accumulation and Cold Tolerance” (Advanced Science, 2025):

System: T1, CtrSTP1
T1 construct: full CDS in pDR196, expressed in hexose/sucrose transport-deficient yeast strain CSY4000; plasma membrane hexose transporter
Experiment: […]-glucose uptake in CSY4000 yeast, Eadie-Hofstee
Format: cell-based, Citrus trifoliata
Settings: pH 5.0; 30 °C; 25 mM sodium phosphate; whole yeast cells; labelled compound; proton-coupled

In the case of `OC[C@H]1OC(O)[C@H](O)[C@@H](O)[C@@H]1O` (stereo partly shown) [glucose], the Km is reported as 101 ± 23.9 µM.
